{"source": "patent US20080267948A1", "about": "“Croos-B Structure Binding Compounds” (priority 2005, published 2008)", "key": {"[1]": {"system": "amyloid-β and glycated albumin", "experiment": "ELISA binding of tPA to immobilized amyloid-β and glycated albumin with Congo red or ThT", "conditions": "concentration series of dye", "procedure": "After 5 washes with wash buffer followed by two washes with PBS, binding of antibodies was assessed. […] Triplicates were averaged and standard deviations calculated."}, "[2]": {"target": "T1, glycated haemoglobin (Hb-AGE) (Homo sapiens, UniProt P68871+P69905)", "T1 construct": "purchased Sigma-Aldrich H7379", "T1 sequence (P69905 2-142 limits assumed)": "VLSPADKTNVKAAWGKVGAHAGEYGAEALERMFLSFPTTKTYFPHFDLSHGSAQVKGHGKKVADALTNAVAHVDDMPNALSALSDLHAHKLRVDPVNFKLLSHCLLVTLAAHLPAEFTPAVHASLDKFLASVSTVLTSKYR", "T1 sequence (P68871 2-147 limits assumed)": "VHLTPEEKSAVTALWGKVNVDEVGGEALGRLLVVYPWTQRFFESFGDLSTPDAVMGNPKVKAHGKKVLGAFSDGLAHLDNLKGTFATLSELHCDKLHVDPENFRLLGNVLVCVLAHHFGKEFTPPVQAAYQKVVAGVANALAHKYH", "experiment": "ELISA binding of IgIV to immobilized Hb-AGE and inhibition studies", "conditions": "15 μg/ml IgIV, concentration series of competitor", "procedure": "Binding of IgIV was determined using an enzyme linked immunosorbent assay (ELISA) set-up. For this purpose 50 μl/well of potential ligands at indicated concentrations or coat buffer only for control and background measurement purposes, were coated overnight at 4° C., with motion, in 50 mM NaHCO3 pH 9.6. Glycated albumin and Hb (BSA-AGE and Hb-AGE), control BSA and control Hb were coated at 5 μg/ml. The BSA and Hb controls were prepared freshly by dissolving lyophilized proteins at 1 mg/ml in PBS upon resuspending by pipetting, followed by a 30′ period at the roller bank, at room temperature. The protein solutions were centrifuged for 10′ at 16,000*g and diluted in coat buffer. Coat controls were performed with anti-glycated protein antibody, anti-albumin antibody, anti-Hb antibody. The alkaline phosphatase-conjugated anti-human Ig antibodies were controlled by coating the IgIV's and overlaying them the secondary antibodies. After coating the plates were washed twice with 50 mM Tris-HCl pH 7.3, 150 mM NaCl, 0.1% v/v Tween20, and blocked with 175 μl/well Blocking reagent (Roche Diagnostics, Almere, The Netherlands; catalogue number 11112589001), for 1 h at room temperature, with motion. Plates were washed twice and incubated in triplicate with indicated antibodies dilution series, plasma dilution series or controls, including binding buffer only, in the absence or presence of putative inhibitors, in binding buffer; PBS/0.1% v/v Tween20, at 50 μl/well, for 1 h at room temperature, with constant motion. After four wash cycles, secondary antibodies were added to the wells, 50 μl/well, for 45′ at room temperature, with motion. RAMPO and SWARPO were used at 2000 times dilution, goat anti-human IgG antibodies were diluted 3000 times, goat anti-human IgM antibodies were diluted 1000 times. After 5 washes with wash buffer followed by two washes with PBS, binding of antibodies was assessed. […] After 5′ absorbance was read at 405 nm. […] After 5′ absorbance was read at 490 nm. […] Triplicates were averaged and standard deviations calculated. […]"}, "[3]": {"target": "T2, Hb-AGE (glucose-6-phosphate modified human haemoglobin) (Homo sapiens, UniProt P68871+P69905)", "T2 construct": "purchased Sigma-Aldrich H7379", "T2 sequence (P69905 2-142 limits assumed)": "as the sequence (P69905 2-142 limits assumed) above", "T2 sequence (P68871 2-147 limits assumed)": "as the sequence (P68871 2-147 limits assumed) above", "experiment": "ELISA binding of tPA to immobilized Hb-AGE, compounds co-incubated with tPA", "conditions": "dye included in the tPA solution", "procedure": "The small compound library is depicted in Tables 4-5. […] Binding experiments were performed in single wells per compound, in a duplicate experiment. Binding data obtained with this duplicate experiment was averaged.\n• 1. […] Coat buffer in control wells. • 2. wash three times with wash buffer • 3. Block all wells with 300 μl 0.5*recommended concentration Roche blocking reagent for 30 minutes at room temperature, with agitation • 4. wash twice • 5. […] Incubate for 30 minutes at room temperature, with agitation • 7. wash five times with TBS/0.1% Tween20 • 8. […] Incubate for 30 minutes at room temperature, with agitation • 10. wash five times with TBS/0.1% Tween20 • 11. Fill wells with 3000× diluted horse raddish peroxidase-labeled polyclonal rabbit anti-mouse antibody (RAMPO, DAKOCytomation) • 12. Incubate for 20 minutes at room temperature, with agitation • 13. Wash five times with TBS/0.1% Tween20 • 14. Wash twice with PBS • 15. Stain with 100 μl TMB, stop with 50 μl 10% H2SO4 • 16. Read absorbance at 450 nm"}, "[4]": {"system": "amyloid γ-globulins", "experiment": "Inhibition ELISA of monoclonal 7H2H2 binding to immobilized amyloid γ-globulins", "parameters": "species or system human", "procedure": "When binding of a monoclonal antibody to an aggregate with amyloid-like properties was confirmed, the influence of Congo red on this interaction was tested as follows. Amyloid γ-globulins were coated onto a high-binding plate (Greiner Microlon, Bio-One GmbH, Frickenhausen, Germany), blocked with Roche blocking reagent, and overlayed with 10 times diluted hybridoma cell culture medium with a concentration series of Congo red. In addition, the inhibitory effect of compounds with cross-(structure conformation on binding of a monoclonal antibody to immobilized cross-β structure conformation comprising antigens was tested with an ELISA set-up. For this purpose, a limiting amount of antigen, i.e. 0.5 μg ml^−1 amyloid γ-globulins, was immobilized onto a Greiner high-binding plate. It was determined that 80 times diluted hybridoma cell culture supernatant contains an amount of antibody that results in less than maximal signal when used in ELISAs with immobilized proteins with cross-β structure conformation (not shown). Now, concentration series of freshly dissolved-, amyloid-, acid-denatured- and base-denatured γ-globulins at 0.1, 1, 10 and 100 μg ml^−1 was added to the 80 times diluted hybridoma cell culture supernatant, and used to overlay the immobilized amyloid γ-globulins. The amount of bound antibody was determined with RAMPO. […]"}, "[5]": {"target": "tPA (Homo sapiens, UniProt P00750)", "sequence (P00750 36-562)": "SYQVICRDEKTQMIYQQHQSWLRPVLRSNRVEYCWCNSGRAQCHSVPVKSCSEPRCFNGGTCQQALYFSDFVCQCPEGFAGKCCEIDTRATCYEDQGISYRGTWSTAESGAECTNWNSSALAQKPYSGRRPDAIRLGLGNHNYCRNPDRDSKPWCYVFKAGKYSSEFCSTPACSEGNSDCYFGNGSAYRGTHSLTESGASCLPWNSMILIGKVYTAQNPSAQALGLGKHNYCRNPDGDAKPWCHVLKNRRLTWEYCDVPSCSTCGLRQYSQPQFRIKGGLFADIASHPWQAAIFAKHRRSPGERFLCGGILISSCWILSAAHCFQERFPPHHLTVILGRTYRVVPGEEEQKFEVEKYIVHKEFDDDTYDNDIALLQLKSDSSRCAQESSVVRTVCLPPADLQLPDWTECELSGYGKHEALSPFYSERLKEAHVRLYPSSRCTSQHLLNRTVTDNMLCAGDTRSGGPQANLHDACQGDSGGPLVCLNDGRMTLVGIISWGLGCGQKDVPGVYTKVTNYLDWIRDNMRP", "experiment": "ELISA binding of β2GPI to immobilized tPA", "procedure": "(§1) Binding of β2GPI was assessed with monoclonal antibody 2B2^17."}, "[6]": {"system": "anti-β2GPI auto-antibodies from antiphospholipid syndrome patients", "experiment": "Interference with binding of anti-β2GPI autoantibodies to immobilized β2GPI", "parameters": "species or system human", "conditions": "concentration series of β2GPI in solution", "procedure": "β2GPI by recombinant β2GPI and not by plasma derived β2GPI When plasma derived β2GPI is coated onto hydrophilic ELISA plates, anti-β2GPI auto-antibodies isolated from plasma of antiphospholipid syndrome autoimmune patients can bind^18. To study the influence of coincubations of the coated β2GPI with the antibodies together with plasma β2GPI or recombinant β2GPI, concentration series of β2GPI were added to the patient antibodies. Subsequently, binding of the antibodies to coated β2GPI was determined."}, "[7]": {"target": "T3, factor XII (Homo sapiens, UniProt P00748)", "T3 sequence (P00748 20-615)": "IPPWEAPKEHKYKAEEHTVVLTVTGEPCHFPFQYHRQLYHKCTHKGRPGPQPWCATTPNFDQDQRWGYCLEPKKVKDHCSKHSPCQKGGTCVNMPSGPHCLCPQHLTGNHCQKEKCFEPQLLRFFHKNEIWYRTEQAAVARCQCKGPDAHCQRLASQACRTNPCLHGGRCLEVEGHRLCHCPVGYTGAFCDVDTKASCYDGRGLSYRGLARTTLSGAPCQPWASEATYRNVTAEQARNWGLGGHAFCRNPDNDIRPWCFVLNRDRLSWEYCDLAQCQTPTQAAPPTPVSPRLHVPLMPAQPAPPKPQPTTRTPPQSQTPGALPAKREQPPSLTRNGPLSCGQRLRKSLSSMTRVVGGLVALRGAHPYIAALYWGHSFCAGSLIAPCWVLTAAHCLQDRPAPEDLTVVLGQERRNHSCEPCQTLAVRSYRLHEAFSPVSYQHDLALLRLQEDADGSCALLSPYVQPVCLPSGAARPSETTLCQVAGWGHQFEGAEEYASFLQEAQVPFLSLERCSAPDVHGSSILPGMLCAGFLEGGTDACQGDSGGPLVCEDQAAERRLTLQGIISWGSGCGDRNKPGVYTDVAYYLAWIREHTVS", "experiment": "ELISA binding of β2GPI to immobilized factor XII", "parameters": "human factor XII from plasma (Calbiochem); purchased Calbiochem; host or cells: human plasma", "procedure": "as §1"}}}
{"molecule": "Cc1ccc2c(c1)sc(-c1ccc(N(C)C)cc1)[n+]2C.[Cl-]", "note": "[Thioflavin T]", "values": [{"measurement": "inhibition of tPA binding to immobilized amyloid-β and glycated albumin", "setting": "[1]", "result": "not by ThT"}, {"measurement": "influence on binding of IgIV to immobilized Hb-AGE", "setting": "[2]", "result": "enhance the binding of IgIV"}, {"measurement": "influence on binding of tPA to immobilized misfolded protein", "setting": "[3]", "result": "promotes binding of tPA"}]}
{"molecule": "Nc1c(/N=N/c2ccc(-c3ccc(/N=N/c4cc(S(=O)(=O)O)c5ccccc5c4N)cc3)cc2)cc(S(=O)(=O)O)c2ccccc12", "note": "[Congo red]", "values": [{"measurement": "inhibition of 7H2H2 binding to amyloid γ-globulins", "setting": "[4]; 500 μM Congo red, diluted 7H2H2 cell culture medium", "result": "approximately 66%"}, {"measurement": "Congo red concentrations that inhibit binding of 7H2H2", "setting": "[4]; 7H2H2 from 10 times diluted culture medium", "result": "higher than 5 μM"}, {"measurement": "inhibition of tPA binding to immobilized amyloid-β and glycated albumin", "setting": "[1]", "result": "effectively inhibited"}, {"measurement": "influence on binding of IgIV to immobilized Hb-AGE", "setting": "[2]", "result": "fully blocks IgIV binding"}, {"measurement": "influence on binding of tPA to immobilized misfolded protein", "setting": "[3]", "result": "inhibits binding of tPA"}]}
{"molecule": "plasma β2GPI: β2-glycoprotein I purified from fresh human plasma (protein, UniProt P02749 20-345, looked up) Beta-2-glycoprotein 1: GRTCPKPDDLPFSTVVPLKTFYEPGEEITYSCKPGYVSRGGMRKFICPLTGLWPINTLKCTPRVCPFAGILENGAVRYTTFEYPNTISFSCNTGFYLNGADSAKCTEEGKWSPELPVCAPIICPPPSIPTFATLRVYKPSAGNNSLYRDTAVFECLPQHAMFGNDTITCTTHGNWTKLPECREVKCPFPSRPDNGFVNYPAKPTLYYKDKATFGCHDGYSLDGPEEIECTKLGNWSAMPSCKASCKVPVKKATVVYQGERVKIQEKFKNGMLHGDKVSFFCKNKEKKCSYTEDAQCIDGTIEVPKCFKEHSSLAFWKTDASDVKPC", "values": [{"measurement": "binding to tPA", "setting": "[5]", "result": "not bind"}, {"measurement": "inhibition of binding of anti-β2GPI auto-antibodies to immobilized β2GPI", "setting": "[6]", "result": "has a minor effect on antibody binding"}, {"measurement": "binding to factor XII", "setting": "[7]", "result": "not bind"}]}
